The results in this text go back to patent publication US20240158392A1 (Janssen Biotech, Inc., priority 2021, published 2024).

In the first test the target is SIK2 (Homo sapiens, UniProt Q9H0K1). The experiment in a line: SIK2 Enzymatic Assay High Version 2 (High ATP). The format is biochemical.
SIK2, sequence (Q9H0K1 whole entry, species assumed): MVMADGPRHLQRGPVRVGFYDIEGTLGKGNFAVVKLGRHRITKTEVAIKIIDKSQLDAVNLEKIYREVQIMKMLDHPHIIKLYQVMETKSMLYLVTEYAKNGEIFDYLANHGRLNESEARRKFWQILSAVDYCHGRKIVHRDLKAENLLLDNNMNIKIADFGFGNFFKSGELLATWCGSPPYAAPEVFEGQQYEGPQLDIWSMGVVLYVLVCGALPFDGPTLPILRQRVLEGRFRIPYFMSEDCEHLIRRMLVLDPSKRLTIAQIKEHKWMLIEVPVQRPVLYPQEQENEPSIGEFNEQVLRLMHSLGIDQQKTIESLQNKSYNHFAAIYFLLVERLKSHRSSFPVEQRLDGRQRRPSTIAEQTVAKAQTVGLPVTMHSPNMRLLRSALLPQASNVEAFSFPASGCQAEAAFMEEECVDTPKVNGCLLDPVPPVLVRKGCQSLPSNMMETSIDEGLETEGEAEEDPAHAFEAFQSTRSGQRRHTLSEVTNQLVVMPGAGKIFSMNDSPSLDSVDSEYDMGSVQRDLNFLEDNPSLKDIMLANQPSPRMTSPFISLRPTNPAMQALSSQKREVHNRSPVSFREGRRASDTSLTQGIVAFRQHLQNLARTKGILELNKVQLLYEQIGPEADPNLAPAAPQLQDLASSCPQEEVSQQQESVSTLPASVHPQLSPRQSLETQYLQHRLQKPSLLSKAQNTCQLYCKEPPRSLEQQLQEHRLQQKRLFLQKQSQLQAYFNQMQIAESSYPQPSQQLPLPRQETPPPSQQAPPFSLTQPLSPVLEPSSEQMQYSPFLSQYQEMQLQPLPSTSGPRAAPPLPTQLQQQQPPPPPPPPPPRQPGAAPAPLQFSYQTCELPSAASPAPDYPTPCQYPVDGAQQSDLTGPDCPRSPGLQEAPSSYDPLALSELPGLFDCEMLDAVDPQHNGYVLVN
Conditions: not given
A digest of the protocol:
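At room temperature, enzyme (6 nM, 2× final) was preincubated with compound for 30 min, then 6 mM ATP and 400 μM HDAC5tide (both 2× final) were added for 2 h. ADP formed was measured by ADP-Glo Max (2 h reagent, 1 h detection) using luminescence.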
For `Cc1cc(-c2ccn3nc(Nc4cnn(C(F)F)c4)cc3c2)c(O[C@H]2C[C@H]3COC[C@@H](C2)N3)cn1` [Example 117, 5-(5-(((1R,5S,7s)-3-oxa-9-azabicyclo[3.3.1]nonan-7-yl)oxy)-2-methylpyridin-4-yl)-N-(1-(difluoromethyl)-1H-pyrazol-4-yl)pyrazolo[1,5-a]pyridin-2-amine], half-maximal inhibition (IC50) required 0.000904 µM.

For `Cc1cc(-c2ccn3nc(Nc4cc(C)nc(C)n4)cc3c2)c(OC[C@H]2CCN2C)cn1` [Example 527, N-(2,6-dimethylpyrimidin-4-yl)-5-[2-methyl-5-[[(2R)-1-methylazetidin-2-yl]methoxy]-4-pyridyl]pyrazolo[1,5-a]pyridin-2-amine], the IC50 is 0.0081 µM.

In turn, `Cc1cc(-c2ccn3nc(NC(=O)C4CC4)cc3c2)c(O[C@H]2C[C@@H](N)C2)cn1` [Example 464, N-(5-(5-((1s,3s)-3-aminocyclobutoxy)-2-methylpyridin-4-yl)pyrazolo[1,5-a]pyridin-2-yl)cyclopropanecarboxamide] had an IC50 of 0.0116 µM.

Compound `Cc1cc(-c2ccn3nc(Nc4cccnn4)cc3c2)c(O[C@H]2C[C@H]3COC[C@@H](C2)N3)cn1` [Example 394, 5-[2-methyl-5-[[(1R,5S,7s)-3-oxa-9-azabicyclo[3.3.1]nonan-7-yl]oxy]-4-pyridyl]-N-pyridazin-3-yl-pyrazolo[1,5-a]pyridin-2-amine] had an IC50 of less than 0.000847 µM.

The same test, now with this note: enzyme 6 nM, 6 mM ATP and 400 μM HDAC5tide (each 2× final concentration); 30 minutes pre-incubation, 2 hours; ADP-Glo Max luminescence; read-out: SIK2 high ATP IC50 (μM) (Test Example 2).
With `CC(C)(C#N)COc1cnc(OCC#N)cc1-c1ccn2nc(NC(=O)C3CC3)cc2c1` [Example 724, N-[5-[2-(cyanomethoxy)-5-(2-cyano-2-methyl-propoxy)-4-pyridyl]pyrazolo[1,5-a]pyridin-2-yl]cyclopropanecarboxamide], the IC50 worked out at 0.0155 µM.

In the case of `Cc1cc(-c2ccn3nc(Nc4cc(C)nc(C)n4)cc3c2)c(OCC2CC(=O)N(C)C2)cn1` (single isomer, unassigned) [Example 547, (*R)-4-[[4-[2-[(2,6-dimethylpyrimidin-4-yl)amino]pyrazolo[1,5-a]pyridin-5-yl]-6-methyl-3-pyridyl]oxymethyl]-1-methyl-pyrrolidin-2-one], the IC50 is 0.014 µM.

Turning to `COc1cc(Nc2cc3cc(-c4cc(C)ncc4OCC(C)(C)O)ccn3n2)cc(OC)c1C(=O)NC1CC1` [Example 626, N-cyclopropyl-4-[[5-[5-(2-hydroxy-2-methyl-propoxy)-2-methyl-4-pyridyl]pyrazolo[1,5-a]pyridin-2-yl]amino]-2,6-dimethoxy-benzamide], the IC50 amounted to 0.0862 µM.

As for `Cc1cc(-c2ccn3nc(Nc4cc(C)c(=O)n(CCOC(F)F)n4)cc3c2)c(O[C@H]2CC[C@H](O)CC2)cn1` [Example 283, 2-[2-(difluoromethoxy)ethyl]-6-[[5-[5-(4-hydroxycyclohexoxy)-2-methyl-4-pyridyl]pyrazolo[1,5-a]pyridin-2-yl]amino]-4-methyl-pyridazin-3-one], the IC50 is 0.00429 µM.

With `Cc1cc(-c2ccn3nc(Nc4cc(C)c(=O)n(CCOC(F)F)n4)cc3c2)c(OC[C@H]2OCC[C@@H]2O)cn1` [Example 296, 2-[2-(difluoromethoxy)ethyl]-6-[[5-[5-[[(2R,3S)-3-hydroxytetrahydrofuran-2-yl]methoxy]-2-methyl-4-pyridyl]pyrazolo[1,5-a]pyridin-2-yl]amino]-4-methyl-pyridazin-3-one], the IC50 was determined as 0.00698 µM.

As to `Cc1cc(-c2cn3cc(Nc4cc(C)nc(C)n4)nc3cn2)c(O[C@H]2CC[C@@H](O)CC2)cn1` [Example 506, 4-[[4-[2-[(2,6-dimethylpyrimidin-4-yl)amino]imidazo[1,2-a]pyrazin-6-yl]-6-methyl-3-pyridyl]oxy]cyclohexanol], the IC50 came out at 0.0178 µM.

Take `Cc1cc(Nc2cc3cc(-c4cc(C#N)ccc4OCC(C)(C)O)ccn3n2)nc(C)n1` [Example 484, 3-[2-[(2,6-dimethylpyrimidin-4-yl)amino]pyrazolo[1,5-a]pyridin-5-yl]-4-(2-hydroxy-2-methyl-propoxy)benzonitrile]: the concentration for half-maximal inhibition (IC50) was 0.0571 µM.
